US20260345530A1, “Use of a Therapeutic Agent with Sodium-Hydrogen Antiporter 1 Inhibitory Activity for the Treatment and Prevention of Diseases Associated with Chronic Fatigue, Exhaustion and/or Exertional Intolerance” (MITODICURE GMBH, priority 2022, published 2026)

Tests used:
[1] = tested on: isolated rat soleus muscle; assay: Ex vivo model of residual muscle force (fatigue) in isolated rat soleus muscle after sodium overload by high NaCl (200 mM) buffer; parameters: species or system rat (female Sprague Dawley); conditions: for residual contractile force compared with baseline control: drug concentrations of 30 to 500 nM, added 10 min before 30 min in 200 mM NaCl buffer, then stimulation in physiological NaCl buffer, 30 °C, pH 7.4, controls without inhibitor 10% to 20%; for effect on rat soleus muscle force decline: high NaCl (200 mM) protocol, result in words
Source text: The claim of this patent is that NHE1 inhibitors can improve disturbed body function and symptoms of ME/CFS, as an example of diseases associated with chronic fatigue (DACF). Muscular fatigue and loss of force (e.g., loss of handgrip strength) is a hallmark in ME/CFS patients. A main target of NHE1 inhibition is the skeletal muscle whose energetic function is deeply disturbed in ME/CFS and which is presumed to be very important in the symptomatology of ME/CFS. NHE1 activity plays a key role in the development of the disturbances by a rise in intramuscular sodium that finally leads to calcium overload. The latter causes a deep functional energetic disturbance or damage. The isolated rat muscle either soleus muscle or extensor digitorum longus muscle is a well-characterized and well-validated model for the study of the function of ion exchangers. The isolated rat soleus muscle is particularly appropriate for experiments ex vivo as it is very thin so that there is no need for blood supply. […] In this experimental setting, a high NaCl concentration buffer causes sodium influx to disturb and decrease excitability and to disturb calcium homeostasis to subsequently reduce muscle force. Inhibition of the NHE1, which exchanges one proton for the uptake of one sodium ion, reduces sodium entry and overload. Prevention or diminution of a loss of muscular force in this procedure indicates effective inhibition of NHE1 by a test compound with the described mode of action of NHE1-inhibition.
The decline in force in the soleus muscle can be considered as muscular fatigue and related to the loss of hand grip muscular strength in ME/CFS patients. The described ex vivo model is suited for testing the effect of NHE1 inhibitors and in particular their effect on force generation disturbed by mechanisms that worsen excitability or the energetic situation or calcium homeostasis via the sodium-calcium-exchanger. High NaCl in a buffer (200 mM) is used to cause intracellular sodium loading leading to a decline in contractile force.
The resulting decline in muscular force is considered as muscular fatigue. In the absence of electrical stimulation avoiding sodium entry by sodium channels the sodium influx during high NaCl exposure is due to the NHE1. Inhibition of NHE1 can prevent sodium overload and a decline in muscular force and fatigue.
Muscle preparation and incubation: Female Sprague Dawley rats of 5 weeks of age are used. After isoflurane anesthesia and cervical dislocation the intact soleus muscles of the animals is dissected. […]
Force measurement: The experimental set-up for force measurements allows for the simultaneous recordings from 6 muscles in separate incubation chambers in parallel. Force is recorded and stored with a Notocord HEM data acquisition system. […]

Ca2^+ and Na+ overload = conditions: preclinical; Chahine et al. doi: 10.1016/j.yjmcc.2005.01.003; Bkaily and Jacques doi: 10.1139/cjpp-2017-0265; cited from earlier work
[2] = tested on: myocardial infarction and dystrophic cardiomyopathy including DMD; conditions: animal models; Ghaleh et al. doi: 10.1016/j.ijcard.2020.03.031; cited from earlier work

| SMILES | residual contractile force compared with baseline control [1] | effect on rat soleus muscle force decline [1] | effect in preventing the deleterious effects of Ca2^+ and Na+ overload (Ca2^+ and Na+ overload) | cardioprotective effects [2] |
| --- | --- | --- | --- | --- |
| CC(C)c1ccc(C(=O)NC(=N)N)cc1S(C)(=O)=O [Cariporide] | 50-70% | diminished the loss of force | beneficial effects | cardioprotective effects |
| Cc1cc(S(C)(=O)=O)c(S(C)(=O)=O)cc1C(=O)N=C(N)N [Rimeporide, N-(4,5-bismethanesulfonyl-2-methylbenzoyl)guanidine] | 50-70% | diminished the loss of force | beneficial effects | cardioprotective effects |
